Measured values published in US9957249B2, “Saturated nitrogen and N-acylated heterocycles potentiating the activity of an active antibiotic against Mycobacteria” (Universite de Droit et de la Sante de Lille 2, priority 2012, dated 2018).

Tests used:
M. tuberculosis = assay: Potentiation of ethionamide cell test (High Content Screening); format: cell-based; details: ligand concentration necessary to potentiate ten times the activity of ethionamide, constant ethionamide 0.1 μg/mL (1/10 of its CMI99), 50% inhibition of bacterial growth
Method: Potentiation of Ethionamide Cell Test
The test used made it possible to ascertain that these compounds were capable of potentiating the bactericide activity of ethionamide on M. tuberculosis alone. This test was a “High Content Screening” (HCS) or dense content screening test. HCS tests were performed on cell cultures that enable certain phenotypic features of a microorganism (e.g. a bacterium) in a given environment to be studied. The phenotypic changes observed can range from the increase (or decrease) of the production of certain marked proteins to the modification of the morphology of the microorganism under consideration. The method is described in the following publication: “Ethionamide Boosters: Synthesis, Biological Activity, and Structure-Activity Relationships of a Series of 1,2,4-Oxadiazole EthR Inhibitors”, M. Flipo et al., Journal of Medicinal Chemistry, 2011, 54(8), 2994-3010.
This test aims to determine the ligand concentration necessary to potentiate ten times the activity of ethionamide (ETH).
To measure the ligand concentration necessary for potentiating ten times the activity of ETH, a constant concentration of ethionamide (0.1 μg/mL corresponding to 1/10 of its CMI99) was chosen. By varying the ligand concentration, the concentration necessary to inhibit 50% of the bacterial growth, i.e. the concentration necessary to potentiate ten times the activity of ethionamide, was determined. This concentration was denoted EC50.

[1] = Measurement of the solubility; format: physicochemical; details: aqueous buffer, kinetic from dmso stock; PBS at pH 7.4, 24 h at RT, LC-MS, ratio of mass signals PBS/MeOH
Method: Measurement of the Solubility
40 μL of a solution at 10 mM in DMSO of the sample was added to 1.96 mL MeOH or PBS at pH 7.4. The samples were then agitated during 24 h at RT, centrifuged during 5 min and then filtrated on filters of 0.45 μm size. 20 μL of each solution were then added to 180 μL MeOH and then analyzed by LC-MS. The solubility was determined as ratio of the surfaces of the mass signals PBS/MeOH.

SMILES | EC50 (M. tuberculosis; Table III) | further results
O=C(CCC(F)(F)F)N1CCN(c2ccc(F)cc2F)CC1 [BDM_70669] | 21 nM | 
O=C(CCC(F)(F)F)N1CCC(c2ccccc2Cl)CC1 [BDM_70534] | 110 nM | 
COc1ccc(C2CCN(C(=O)CCC(F)(F)F)CC2)cc1 [BDM_70537] | 2 nM | 
O=C(CCC(F)(F)F)N1CCC(c2cccc(C(F)(F)F)c2)CC1 [BDM_70546] | 1 nM | 
O=C(CCCC(F)(F)F)N1CCC(c2ccccc2)CC1 [BDM_44648] | < 10 nM | EC50 (M. tuberculosis; Table I): < 10 nM; solubility at 24 h [1]: 42.9 µg/mL
CC(C)CCC(=O)N1CCC(c2ccccc2)CC1 [BDM_44649] | 60 nM | EC50 (M. tuberculosis; Table II): 60 nM
Cc1ccc(C2CCN(C(=O)CCC(F)(F)F)CC2)cc1 [BDM_70663] | 26 nM | 
COc1ccccc1C1CCN(C(=O)CCC(F)(F)F)CC1 [BDM_70540] | 140 nM | 
O=C(CCCC(F)(F)F)N1CCN(c2ccc(Cl)cc2)CC1 [BDM_44812] | < 20 nM | 
O=C(CCC(F)(F)F)N1CCN(Cc2ccccc2)CC1 [BDM_70719] | 1100 nM | 
O=C(CCC(F)(F)F)N1CCC(c2ccc(O)cc2)CC1 [BDM_45572] | 280 nM | 
O=C(CCC(F)(F)F)N1CCC(c2ccc(Cl)c(Cl)c2)CC1 [BDM_70716] | 25 nM | 
CC(C)CCC(=O)N1CCN(c2ccccc2)CC1 [BDM_44810] | 60 nM | EC50 (M. tuberculosis; Table II): 60 nM
COc1cccc(C2CCN(C(=O)CCC(F)(F)F)CC2)c1 [BDM_70538] | 140 nM | 
O=C(CCC(F)(F)F)N1CCC(c2ccncc2)CC1 [BDM_70542] | 330 nM | 
O=C(CCC(F)(F)F)N1CCC(c2ccc(F)cc2)C1 (stereo not shown) [BDM_70717] | 9 nM | EC50 (M. tuberculosis; Table I): 9 nM
O=C(CCC(F)(F)F)N1CCC(c2ccccc2C(F)(F)F)CC1 [BDM_70536] | 770 nM | 
CC(C)CCC(=O)N1CCN(c2ccc(Cl)cc2)CC1 [BDM_44813] | 100 nM | EC50 (M. tuberculosis; Table II): 100 nM

SMILES | EC50 (M. tuberculosis; Table III) | further results
O=C(CCC(F)(F)F)N1CCC(Cc2ccccc2)CC1 [BDM_70670] | 54 nM | 
O=C(CCCC(F)(F)F)N1CCN(c2ccc(F)cc2)CC1 [BDM_44820] | 140 nM | 
Cc1ccccc1C1CCN(C(=O)CCC(F)(F)F)CC1 [BDM_70665] | 35 nM | 
O=C(CCC(F)(F)F)N1CCC(c2cccc(Cl)c2)CC1 [BDM_70668] | 0.5 nM | 
O=C(CCC(F)(F)F)N1CCC(c2ccc(Cl)cc2)CC1 [BDM_70535] | 120 nM | 
Cc1cccc(C2CCN(C(=O)CCC(F)(F)F)CC2)c1 [BDM_70664] | 1 nM | 
O=C(CCC(F)(F)F)N1CCC(c2ccccc2)CC1 [BDM_44647] | 0.8 nM | EC50 (M. tuberculosis; Table I): 0.8 nM; solubility at 24 h [1]: 50.4 µg/mL
CC(C)CCC(=O)N1CCN(c2ccc(F)cc2)CC1 [BDM_44821] | 100 nM | EC50 (M. tuberculosis; Table II): 100 nM
O=C(CCC(F)(F)F)N1CCC(c2cccc(F)c2)CC1 [BDM_70531] | 0.8 nM | 
O=C(CCCC(F)(F)F)N1CCN(c2ccccc2)CC1 [BDM_44809] | 70 nM | 
O=C(CCC(F)(F)F)N1CCC(c2ccccc2F)CC1 [BDM_70666] | 1 nM | 
O=C(CCC(F)(F)F)N1CCC(c2c(F)cc(F)cc2F)CC1 [BDM_71148] | 1 nM | 
O=C(CCC(F)(F)F)N1CCC(c2ccc(C(F)(F)F)cc2)CC1 [BDM_70667] | 300 nM | 
O=C(CCC(F)(F)F)N1CCN(c2ccccc2)CC1 [BDM_44808] | 10 nM | 
O=C(CCC(F)(F)F)N1CCN(c2ccc(Cl)cc2)CC1 [BDM_44811] | 10 nM | 
O=C(CCC(F)(F)F)N1CCC(c2ccc(F)cc2)CC1 [BDM_44751] | 1 nM | EC50 (M. tuberculosis; Table I): 1 nM; solubility at 24 h [1]: 51.9 µg/mL
O=C(CCC(F)(F)F)N1CCN(c2ccc(F)cc2)CC1 [BDM_44819] | 27 nM | 
